Reference: patent US11124494B2, “Aryl heterocyclic piperidinone formyl peptide 2 receptor and formyl peptide 1 receptor agonists” (Bristol-Myers Squibb Company, priority 2017, dated 2021)

These compounds were tested against human FPR1 receptors (Homo sapiens (Human), UniProt P21462) (assay: FPR1 cyclic adenosine monophosphate (cAMP) assay). Settings: CHO cells overexpressing human FPR1; forskolin 10 μM, IBMX 200 μM; inhibition of cAMP production; read-out: hFPR1 cAMP EC50.
Assay type: cell-based
Procedure: (§1) FPR2 and FPR1 Cyclic Adenosine Monophosphate (cAMP) Assays. A mixture of forskolin (5 μM final for FPR2 or 10 μM final for FPR1) and IBMX (200 μM final) were added to 384-well Proxiplates (Perkin-Elmer) pre-dotted with test compounds in DMSO (1% final) at final concentrations in the range of 1.7 nM to 100 μM. Chinese Hamster Ovary cells (CHO) overexpressing human FPR1 or human FPR2 receptors were cultured in F-12 (Ham's) medium supplemented with 10% qualified FBS, 250 μg/ml zeocin and 300 μg/ml hygromycin (Life Technologies). Reactions were initiated by adding 2,000 human FPR2 cells per well or 4,000 human FPR1 cells per well in Dulbecco's PBS (with calcium and magnesium) (Life Technologies) supplemented with 0.1% BSA (Perkin-Elmer). The reaction mixtures were incubated for 30 min at room temperature. The level of intracellular cAMP was determined using the HTRF HiRange cAMP assay reagent kit (Cisbio) according to manufacturer's instruction. Solutions of cryptate conjugated anti-cAMP and d2 flurorophore-labelled cAMP were made in a supplied lysis buffer separately. Upon completion of the reaction, the cells were lysed with equal volume of the d2-cAMP solution and anti-cAMP solution. After a 1-h room temperature incubation, time-resolved fluorescence intensity was measured using the Envision (Perkin-Elmer) at 400 nm excitation and dual emission at 590 nm and 665 nm. A calibration curve was constructed with an external cAMP standard at concentrations ranging from 1 μM to 0.1 pM by plotting the fluorescent intensity ratio from 665 nm emission to the intensity from the 590 nm emission against cAMP concentrations. The potency and activity of a compound to inhibit cAMP production was then determined by fitting to a 4-parametric logistic equation from a plot of cAMP level versus compound concentrations.

Chain of human FPR1 receptors (P21462 whole entry): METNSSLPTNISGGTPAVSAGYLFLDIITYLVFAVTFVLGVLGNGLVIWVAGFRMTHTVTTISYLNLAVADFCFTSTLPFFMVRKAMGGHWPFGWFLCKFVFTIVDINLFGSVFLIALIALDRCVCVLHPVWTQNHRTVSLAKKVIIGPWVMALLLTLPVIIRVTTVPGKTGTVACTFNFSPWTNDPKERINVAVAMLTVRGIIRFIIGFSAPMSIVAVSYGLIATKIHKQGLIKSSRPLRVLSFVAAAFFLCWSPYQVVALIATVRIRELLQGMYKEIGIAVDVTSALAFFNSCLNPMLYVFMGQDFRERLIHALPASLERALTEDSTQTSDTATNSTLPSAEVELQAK

EC50 | Structure (SMILES)
0.13 µM | CS(=O)(=O)NCC1(c2ccc(N3CCC[C@@H](NC(=O)Nc4cnc(Cl)cn4)C3=O)cc2)CC1 [Example 27]
0.56 µM | O=C(Nc1ccc(C(F)(F)F)nc1)N[C@@H]1CCCN(c2ccc(C3(CN4CCOCC4)CCC3)cc2)C1=O [Example 52, (R)-1-(1-(4-(1-(Morpholinomethyl)cyclobutyl)phenyl)-2-oxopiperidin-3-yl)-3-(6-(trifluoromethyl)pyridin-3-yl)urea]
> 5000 µM | O=C(Nc1ccc(C(F)(F)F)nc1)N[C@H]1CCCN(c2ccc(C3(CN4CCCC4)CCC3)cc2)C1=O [Example 57, (S)-1-(2-oxo-1-(4-(1-(pyrrolidin-1-ylmethyl)cyclobutyl)phenyl)piperidin-3-yl)-3-(6-(trifluoromethyl)pyridin-3-yl)urea]
2.1 µM | CS(=O)(=O)NCC1(c2ccc(N3C[C@@H](O)C[C@@H](NC(=O)Nc4ncc(Cl)cc4F)C3=O)cc2)CC1 [Example 71]
0.66 µM | CS(=O)(=O)NCC1(c2ccc(N3C[C@@H](O)C[C@H](NC(=O)Nc4ncc(C(F)(F)F)cc4F)C3=O)cc2)CC1 [Example 69, N-((1-(4-((3S,5S)-3-(3-(3-fluoro-5-(trifluoromethyl)pyridin-2-yl)ureido)-5-hydroxy-2-oxopiperidin-1-yl)phenyl)cyclopropyl)methyl)methanesulfonamide]
3.6 µM | O=C(Nc1ccc(Cl)cc1F)N[C@@H]1CCCN(c2ccc(C3CCC(O)C3)cc2)C1=O (stereo partly drawn) [Example 77, 1-(4-Chloro-2-fluorophenyl)-3-((3R)-1-(4-(3-hydroxycyclopentyl)phenyl)-2-oxopiperidin-3-yl)urea]
1.1 µM | O=C(Nc1ccc(C(F)(F)F)nc1)N[C@H]1CCCN(c2ccc(C3(CN4CCOCC4)CCC3)cc2)C1=O [Example 62, (S)-1-(1-(4-(1-(morpholinomethyl)cyclobutyl)phenyl)-2-oxopipendin-3-yl)-3-(6-(trifluoromethyl)pyridin-3-yl)urea]
330 µM | CC(=O)NC(C)C1(c2ccc(N3CCC[C@@H](NC(=O)Nc4ccc(C(F)(F)F)nc4)C3=O)cc2)CC1 (stereo partly shown) [Example 73]

The compounds below were run against human FPR2 receptors (Homo sapiens (Human), UniProt P25090) (assay: FPR2 cyclic adenosine monophosphate (cAMP) assay). Settings: CHO cells overexpressing human FPR2; forskolin 5 μM, IBMX 200 μM; inhibition of cAMP production; read-out: hFPR2 cAMP2 EC50.
Chain of human FPR2 receptors (P25090 whole entry): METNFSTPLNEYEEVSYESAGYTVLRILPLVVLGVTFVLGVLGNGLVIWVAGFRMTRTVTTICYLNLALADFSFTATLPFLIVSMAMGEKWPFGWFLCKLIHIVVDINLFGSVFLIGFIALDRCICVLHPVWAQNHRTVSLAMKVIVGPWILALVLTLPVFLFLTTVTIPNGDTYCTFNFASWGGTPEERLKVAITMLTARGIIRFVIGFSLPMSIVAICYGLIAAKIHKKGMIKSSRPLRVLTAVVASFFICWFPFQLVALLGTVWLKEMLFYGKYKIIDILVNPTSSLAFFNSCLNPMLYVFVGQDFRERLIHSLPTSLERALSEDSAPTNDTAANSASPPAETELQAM
Assay type: cell-based
Procedure: as §1

EC50 | Structure (SMILES)
0.00091 µM | CS(=O)(=O)NCC1(c2ccc(N3CCC[C@@H](NC(=O)Nc4cnc(Cl)cn4)C3=O)cc2)CC1 [Example 27]
0.017 µM | O=C(Nc1ccc(C(F)(F)F)nc1)N[C@@H]1CCCN(c2ccc(C3(CN4CCOCC4)CCC3)cc2)C1=O [Example 52, (R)-1-(1-(4-(1-(Morpholinomethyl)cyclobutyl)phenyl)-2-oxopiperidin-3-yl)-3-(6-(trifluoromethyl)pyridin-3-yl)urea]
0.96 µM | O=C(Nc1ccc(C(F)(F)F)nc1)N[C@H]1CCCN(c2ccc(C3(CN4CCCC4)CCC3)cc2)C1=O [Example 57, (S)-1-(2-oxo-1-(4-(1-(pyrrolidin-1-ylmethyl)cyclobutyl)phenyl)piperidin-3-yl)-3-(6-(trifluoromethyl)pyridin-3-yl)urea]
0.017 µM | CS(=O)(=O)NCC1(c2ccc(N3C[C@@H](O)C[C@@H](NC(=O)Nc4ncc(Cl)cc4F)C3=O)cc2)CC1 [Example 71]
0.019 µM | CS(=O)(=O)NCC1(c2ccc(N3C[C@@H](O)C[C@H](NC(=O)Nc4ncc(C(F)(F)F)cc4F)C3=O)cc2)CC1 [Example 69, N-((1-(4-((3S,5S)-3-(3-(3-fluoro-5-(trifluoromethyl)pyridin-2-yl)ureido)-5-hydroxy-2-oxopiperidin-1-yl)phenyl)cyclopropyl)methyl)methanesulfonamide]
3.2 µM | O=C(Nc1ccc(Cl)cc1F)N[C@@H]1CCCN(c2ccc(C3CCC(O)C3)cc2)C1=O (stereo partly drawn) [Example 77, 1-(4-Chloro-2-fluorophenyl)-3-((3R)-1-(4-(3-hydroxycyclopentyl)phenyl)-2-oxopiperidin-3-yl)urea]
1.2 µM | O=C(Nc1ccc(C(F)(F)F)nc1)N[C@H]1CCCN(c2ccc(C3(CN4CCOCC4)CCC3)cc2)C1=O [Example 62, (S)-1-(1-(4-(1-(morpholinomethyl)cyclobutyl)phenyl)-2-oxopipendin-3-yl)-3-(6-(trifluoromethyl)pyridin-3-yl)urea]
83 µM | CC(=O)NC(C)C1(c2ccc(N3CCC[C@@H](NC(=O)Nc4ccc(C(F)(F)F)nc4)C3=O)cc2)CC1 (stereo partly shown) [Example 73]

Same assay, conditions: hFPR2 Assay, CHO cells overexpressing human FPR2; potency bins; read-out: hFPR2 agonist activity EC50 values

Structure (SMILES) | EC50
N#CC1(c2ccc(N3CCC[C@H](NC(=O)Nc4ccc(C(F)(F)F)cc4)C3=O)cc2)CC1 [Example 48] | 0.1 to 1.25 µM
COc1cnc(NC(=O)N[C@H]2CCCN(c3ccc(C4(CNS(C)(=O)=O)CC4)cc3)C2=O)cn1 [Example 11] | 0.1 to 1.25 µM
CS(=O)(=O)NCC1(c2ccc(N3CCC[C@H](NC(=O)Nc4ccc(C(F)(F)F)nc4)C3=O)cc2)CCCC1 [Example 32] | 0.1 to 1.25 µM
O=C(Nc1ccc(C(F)(F)F)cn1)N[C@@H]1CCCN(c2ccc(C3(CN4CCOCC4)CCCC3)cc2)C1=O [Example 65, (R)-1-(1-(4-(1-(morpholinomethyl)cyclopentyl)phenyl)-2-oxopiperidin-3-yl)-3-(5-(trifluoromethyl)pyridin-2-yl)urea] | 0.1 to 1.25 µM
O=C(Nc1ccc(C(F)(F)F)nc1)N[C@@H]1CCCN(c2ccc(C3(CO)CC3)cc2)C1=O [Example 3] | 0.1 to 1.25 µM
CS(=O)(=O)NCC1(c2ccc(N3CCC[C@H](NC(=O)Nc4ccc(C(F)(F)F)nc4)C3=O)cc2)CC1 [Example 45] | 0.1 to 1.25 µM
O=C(Nc1ccc(C(F)(F)F)cn1)N[C@@H]1CCCN(c2ccc(C3(CN4CCCC4)CCCC3)cc2)C1=O [Example 60, (R)-1-(2-oxo-1-(4-(1-(pyrrolidin-1-ylmethyl)cyclopentyl)phenyl)piperidin-3-yl)-3-(5-(trifluoromethyl)pyridin-2-yl)urea] | 0.1 to 1.25 µM
O=C(Nc1ccc(C(F)(F)F)nc1)N[C@@H]1CCCN(c2ccc(C3(CN4CCCC4)CC3)cc2)C1=O [Example 66, (R)-1-(2-oxo-1-(4-(1-(pyrrolidin-1-ylmethyl)cyclopropyl)phenyl)piperidin-3-yl)-3-(6-(trifluoromethyl)pyridin-3-yl)urea] | 0.1 to 1.25 µM
CS(=O)(=O)NCC1(c2ccc(N3CCC[C@@H](NC(=O)Nc4ncc(Cl)cc4Cl)C3=O)cc2F)CC1 [Example 22] | 0.1 to 1.25 µM
CS(=O)(=O)NCC1(c2ccc(N3CCC[C@H](NC(=O)Nc4ccc(C(F)(F)F)cn4)C3=O)cc2)CC1 [Example 47] | 0.1 to 1.25 µM

Continued, values first:

EC50 | Structure (SMILES)
≤ 0.01 µM | CS(=O)(=O)NCC1(c2ccc(N3CCC[C@@H](NC(=O)Nc4ccc(C(F)(F)F)nc4)C3=O)cc2)CCCC1 [Example 31]
0.01 to 0.1 µM | CS(=O)(=O)NCC1(c2ccc(N3C[C@H](O)C[C@@H](NC(=O)Nc4ncc(C(F)(F)F)cc4F)C3=O)cc2)CC1 [Example 68, N-((1-(4-((3R,5R)-3-(3-(3-Fluoro-5-(trifluoromethyl)pyridin-2-yl)ureido)-5-hydroxy-2-oxopiperidin-1-yl)phenyl)cyclopropyl)methyl)methanesulfonamide]
≤ 0.01 µM | CS(=O)(=O)NCC1(c2ccc(N3CCC[C@H](NC(=O)Nc4cnc(Cl)cn4)C3=O)cc2)CCC1 [Example 12]
≤ 0.01 µM | CS(=O)(=O)NCC1(c2ccc(N3CCC[C@@H](NC(=O)Nc4ncc(C(F)(F)F)cc4F)C3=O)cc2)CCC1 [Example 14]
≤ 0.01 µM | CS(=O)(=O)NCC1(c2ccc(N3CCC[C@@H](NC(=O)Nc4ccc(OC(F)F)nc4)C3=O)cc2)CC1 [Example 36]
0.01 to 0.1 µM | CS(=O)(=O)NCC1(c2ccc(N3CCC[C@@H](NC(=O)Nc4cnc(C#N)cn4)C3=O)cc2)CC1 [Example 37]
0.01 to 0.1 µM | CS(=O)(=O)NCC1(c2ccc(N3CCC[C@@H](NC(=O)Nc4ccc(C(F)(F)F)cn4)C3=O)c(F)c2)CC1 [Example 4]
0.01 to 0.1 µM | CS(=O)(=O)NCC1(c2ccc(N3CCC[C@@H](NC(=O)Nc4ncc(C(F)(F)F)cc4F)C3=O)cc2)CC1 [Example 40]
0.01 to 0.1 µM | CS(=O)(=O)NCC1(c2ccc(N3CCC[C@H](NC(=O)Nc4ccc(C(F)(F)F)cc4)C3=O)cc2)CC1 [Example 43]
0.01 to 0.1 µM | O=C(Nc1ccc(C(F)(F)F)nc1)N[C@@H]1CCCN(c2ccc(C3(CN4CCOCC4)CC3)cc2)C1=O [Example 64, (R)-1-(1-(4-(1-(morpholinomethyl)cyclopropyl)phenyl)-2-oxopiperidin-3-yl)-3-(6-(trifluoromethyl)pyridin-3-yl)urea]
≤ 0.01 µM | COc1cnc(NC(=O)N[C@@H]2CCCN(c3ccc(C4(CNS(C)(=O)=O)CC4)cc3)C2=O)cn1 [Example 9]
0.01 to 0.1 µM | CS(=O)(=O)NCC1(c2ccc(N3CCC[C@@H](NC(=O)Nc4ncc(C(F)(F)F)cc4F)C3=O)cc2F)CC1 [Example 17]
0.01 to 0.1 µM | CS(=O)(=O)NCC1(c2ccc(N3CCC[C@@H](NC(=O)Nc4ccc(OC(F)F)nc4)C3=O)cc2F)CC1 [Example 21]
≤ 0.01 µM | Cc1cnc(NC(=O)N[C@@H]2CCCN(c3ccc(C4(CNS(C)(=O)=O)CC4)cc3)C2=O)cn1 [Example 25]
0.01 to 0.1 µM | CS(=O)(=O)NCC1(c2ccc(N3CCC[C@@H](NC(=O)Nc4ccc(C(F)(F)F)cn4)C3=O)cc2F)CC1 [Example 26]
≤ 0.01 µM | O=C(Nc1ccc(Cl)cc1)N[C@@H]1CCCN(c2ccc(C3CCOCC3)cc2)C1=O [Example 50]
≤ 0.01 µM | COc1cnc(NC(=O)N[C@@H]2CCCN(c3ccc(C4(CNS(C)(=O)=O)CC4)c(F)c3)C2=O)cn1 [Example 5]
≤ 0.01 µM | CS(=O)(=O)NCC1(c2ccc(N3CCC[C@@H](NC(=O)Nc4cnc(Cl)cn4)C3=O)cc2F)CC1 [Example 19]
≤ 0.01 µM | CS(=O)(=O)NCC1(c2ccc(N3CCC[C@@H](NC(=O)Nc4ccc(C(F)(F)F)nc4)C3=O)cc2)CC1 [Example 33]
≤ 0.01 µM | CS(=O)(=O)NCC1(c2ccc(N3CCC[C@@H](NC(=O)Nc4ccc(C(F)(F)F)nc4)C3=O)cc2)CCC1 [Example 1, (R)—N-((1-(4-(2-Oxo-3-(3-(6-(trifluoromethyl)pyridin-3-yl)ureido)piperidin-1-yl)phenyl)cyclobutyl)methyl)methanesulfonamide]
0.01 to 0.1 µM | CS(=O)(=O)NCC1(c2ccc(N3CCC[C@@H](NC(=O)Nc4ccc(C(F)(F)F)cn4)C3=O)cc2)CCCC1 [Example 29]
≤ 0.01 µM | COc1cnc(NC(=O)N[C@@H]2CCCN(c3ccc(C4(CNS(C)(=O)=O)CCC4)cc3)C2=O)cn1 [Example 7]
≤ 0.01 µM | CS(=O)(=O)NCC1(c2ccc(N3CCC[C@@H](NC(=O)Nc4ccc(Cl)cn4)C3=O)cc2)CC1 [Example 23]
≤ 0.01 µM | CS(=O)(=O)NCC1(c2ccc(N3CCC[C@@H](NC(=O)Nc4ccc(C(F)(F)F)nc4)C3=O)cc2F)CC1 [Example 2]
0.01 to 0.1 µM | COc1cnc(NC(=O)N[C@@H]2CCCN(c3ccc(C4(CNS(C)(=O)=O)CC4)cc3)C2=O)c(F)c1 [Example 34]
≤ 0.01 µM | CS(=O)(=O)NCC1(c2ccc(N3CCC[C@@H](NC(=O)Nc4ncc(Cl)cc4F)C3=O)cc2)CC1 [Example 39]
